Measured values: ChEMBL document CHEMBL3885881, “DrugMatrix”

Organism: Rattus norvegicus
Experiment: DrugMatrix - Regimen: Daily Repeat
Assay type: toxicity, organism-based, Sprague-Dawley
Set-up: regimen Daily Repeat, gender Male, age 6-8 weeks
Conditions: in vivo, po, 80 mg/kg, route oral GAVAGE, dose level High, vehicle .5 % CMC; for ABSOLUTE BASOPHIL / ABSOLUTE EOSINOPHIL / ABSOLUTE LYMPHOCYTE / ABSOLUTE MONOCYTE / ABSOLUTE SEGMENTED NEUTROPHIL / BASOPHIL / EOSINOPHIL / ERYTHROCYTE COUNT / HEMATOCRIT / HEMOGLOBIN / LEUKOCYTE COUNT / LYMPHOCYTE / MEAN CORPUSCULAR HEMOGLOBIN / MEAN CORPUSCULAR HEMOGLOBIN CONCENTRATION / MEAN CORPUSCULAR VOLUME / MONOCYTE / NEUTROPHIL / PLATELET COUNT: tissue Blood; for ALANINE AMINOTRANSFERASE / ALBUMIN / ALKALINE PHOSPHATASE / ASPARTATE AMINOTRANSFERASE / BLOOD UREA NITROGEN / CHLORIDE / CHOLESTEROL / CREATINE PHOSPHOKINASE / CREATININE / GLUCOSE / LACTATE DEHYDROGENASE / LIPASE / PHOSPHORUS / POTASSIUM / SODIUM / TOTAL BILIRUBIN / TOTAL PROTEIN / URIC ACID: tissue Plasma

SMILES: O=c1cc(-c2ccccc2)oc2c1ccc1ccccc12 [ALPHA-NAPHTHOFLAVONE]
- ABSOLUTE BASOPHIL (120 h, time 5 day): 170 cells/µL
- ABSOLUTE EOSINOPHIL (120 h, time 5 day): 42.5 cells/µL
- ABSOLUTE LYMPHOCYTE (120 h, time 5 day): 11500 cells/µL
- ABSOLUTE MONOCYTE (120 h, time 5 day): 230 cells/µL
- ABSOLUTE SEGMENTED NEUTROPHIL (120 h, time 5 day): 1790 cells/µL
- BASOPHIL (120 h, time 5 day): 1.35%
- EOSINOPHIL (120 h, time 5 day): 0.35%
- ERYTHROCYTE COUNT (120 h, time 5 day): 7.43 x10E6/uL
- HEMATOCRIT (120 h, time 5 day): 46.52%
- HEMOGLOBIN (120 h, time 5 day): 15.82 G/DL
- LEUKOCYTE COUNT (120 h, time 5 day): 13.81 x10E3/uL
- LYMPHOCYTE (120 h, time 5 day): 82.92%
- MEAN CORPUSCULAR HEMOGLOBIN (120 h, time 5 day): 21.35 pg
- MEAN CORPUSCULAR HEMOGLOBIN CONCENTRATION (120 h, time 5 day): 34.08 G/DL
- MEAN CORPUSCULAR VOLUME (120 h, time 5 day): 62.67 fL
- MONOCYTE (120 h, time 5 day): 1.57%
- NEUTROPHIL (120 h, time 5 day): 13.3%
- PLATELET COUNT (120 h, time 5 day): 1518.75 x10E3/uL
- ALANINE AMINOTRANSFERASE (120 h, time 5 day): 31.25 u/L
- ALBUMIN (120 h, time 5 day): 3.65 G/DL
- ALKALINE PHOSPHATASE (120 h, time 5 day): 212.25 u/L
- ASPARTATE AMINOTRANSFERASE (120 h, time 5 day): 78.25 u/L
- BLOOD UREA NITROGEN (120 h, time 5 day): 9.25 mg/dL
- CHLORIDE (120 h, time 5 day): 108 MEQ/L
- CHOLESTEROL (120 h, time 5 day): 61 mg/dL
- CREATINE PHOSPHOKINASE (120 h, time 5 day): 190.25 u/L
- CREATININE (120 h, time 5 day): 0.53 mg/dL
- GLUCOSE (120 h, time 5 day): 111 mg/dL
- LACTATE DEHYDROGENASE (120 h, time 5 day): 112.75 u/L
- LIPASE (120 h, time 5 day): 16.75 u/L
- PHOSPHORUS (120 h, time 5 day): 12.3 mg/dL
- POTASSIUM (120 h, time 5 day): 6.75 MEQ/L
- SODIUM (120 h, time 5 day): 151.5 MEQ/L
- TOTAL BILIRUBIN (120 h, time 5 day): 0.23 mg/dL
- TOTAL PROTEIN (120 h, time 5 day): 6.07 G/DL
- URIC ACID (120 h, time 5 day): 0.72 mg/dL
- ABSOLUTE BASOPHIL (2184 h, time 91 day): 340 cells/µL
- ABSOLUTE EOSINOPHIL (2184 h, time 91 day): 100 cells/µL
- ABSOLUTE LYMPHOCYTE (2184 h, time 91 day): 10400 cells/µL
- ABSOLUTE MONOCYTE (2184 h, time 91 day): 180 cells/µL
- ABSOLUTE SEGMENTED NEUTROPHIL (2184 h, time 91 day): 1510 cells/µL
- BASOPHIL (2184 h, time 91 day): 2.59%
- EOSINOPHIL (2184 h, time 91 day): 0.83%
- ERYTHROCYTE COUNT (2184 h, time 91 day): 9.33 x10E6/uL
- HEMATOCRIT (2184 h, time 91 day): 49.58%
- HEMOGLOBIN (2184 h, time 91 day): 16.44 G/DL
- LEUKOCYTE COUNT (2184 h, time 91 day): 12.6 x10E3/uL
- LYMPHOCYTE (2184 h, time 91 day): 82.74%
- MEAN CORPUSCULAR HEMOGLOBIN (2184 h, time 91 day): 17.63 pg
- MEAN CORPUSCULAR HEMOGLOBIN CONCENTRATION (2184 h, time 91 day): 33.15 G/DL
- MEAN CORPUSCULAR VOLUME (2184 h, time 91 day): 53.18 fL
- MONOCYTE (2184 h, time 91 day): 1.38%
- NEUTROPHIL (2184 h, time 91 day): 12.04%
- PLATELET COUNT (2184 h, time 91 day): 1261.8 x10E3/uL
- ALANINE AMINOTRANSFERASE (2184 h, time 91 day): 28.3 u/L
- ALBUMIN (2184 h, time 91 day): 3.77 G/DL
- ALKALINE PHOSPHATASE (2184 h, time 91 day): 94.2 u/L
- ASPARTATE AMINOTRANSFERASE (2184 h, time 91 day): 64.7 u/L
- BLOOD UREA NITROGEN (2184 h, time 91 day): 15.9 mg/dL
- CHLORIDE (2184 h, time 91 day): 103.2 MEQ/L
- CHOLESTEROL (2184 h, time 91 day): 70.3 mg/dL
- CREATINE PHOSPHOKINASE (2184 h, time 91 day): 80.9 u/L
- CREATININE (2184 h, time 91 day): 0.54 mg/dL
- GLUCOSE (2184 h, time 91 day): 152 mg/dL
- LACTATE DEHYDROGENASE (2184 h, time 91 day): 46.3 u/L
- LIPASE (2184 h, time 91 day): 18.7 u/L
- PHOSPHORUS (2184 h, time 91 day): 8.35 mg/dL
- POTASSIUM (2184 h, time 91 day): 6.21 MEQ/L
- SODIUM (2184 h, time 91 day): 149.8 MEQ/L
- TOTAL BILIRUBIN (2184 h, time 91 day): 0.21 mg/dL
- TOTAL PROTEIN (2184 h, time 91 day): 7.38 G/DL
- URIC ACID (2184 h, time 91 day): 0.89 mg/dL
- ABSOLUTE BASOPHIL ([…], time 28 day): 200 cells/µL
- ABSOLUTE EOSINOPHIL ([…], time 28 day): 76 cells/µL
- ABSOLUTE LYMPHOCYTE ([…], time 28 day): 13000 cells/µL
- ABSOLUTE MONOCYTE ([…], time 28 day): 200 cells/µL
- ABSOLUTE SEGMENTED NEUTROPHIL ([…], time 28 day): 1710 cells/µL
- BASOPHIL ([…], time 28 day): 1.28%
- EOSINOPHIL ([…], time 28 day): 0.48%
- ERYTHROCYTE COUNT ([…], time 28 day): 8.57 x10E6/uL
- HEMATOCRIT ([…], time 28 day): 47.9%
- HEMOGLOBIN ([…], time 28 day): 15.96 G/DL
- LEUKOCYTE COUNT ([…], time 28 day): 15.29 x10E3/uL
- LYMPHOCYTE ([…], time 28 day): 85.76%
- MEAN CORPUSCULAR HEMOGLOBIN ([…], time 28 day): 18.62 pg
- MEAN CORPUSCULAR HEMOGLOBIN CONCENTRATION ([…], time 28 day): 33.3 G/DL
- MEAN CORPUSCULAR VOLUME ([…], time 28 day): 55.92 fL
- MONOCYTE ([…], time 28 day): 1.36%
- NEUTROPHIL ([…], time 28 day): 10.8%
- PLATELET COUNT ([…], time 28 day): 1456 x10E3/uL
- ALANINE AMINOTRANSFERASE ([…], time 28 day): 26.4 u/L
- ALBUMIN ([…], time 28 day): 3.66 G/DL
- ALKALINE PHOSPHATASE ([…], time 28 day): 157.4 u/L
- ASPARTATE AMINOTRANSFERASE ([…], time 28 day): 65.6 u/L
- BLOOD UREA NITROGEN ([…], time 28 day): 13.6 mg/dL
- CHLORIDE ([…], time 28 day): 104 MEQ/L
- CHOLESTEROL ([…], time 28 day): 49.8 mg/dL
- CREATINE PHOSPHOKINASE ([…], time 28 day): 102 u/L
- CREATININE ([…], time 28 day): 0.46 mg/dL
- GLUCOSE ([…], time 28 day): 153.8 mg/dL
- LACTATE DEHYDROGENASE ([…], time 28 day): 60 u/L
- LIPASE ([…], time 28 day): 19 u/L
- PHOSPHORUS ([…], time 28 day): 9.14 mg/dL
- POTASSIUM ([…], time 28 day): 5.7 MEQ/L
- SODIUM ([…], time 28 day): 151 MEQ/L
- TOTAL BILIRUBIN ([…], time 28 day): 0.22 mg/dL
- TOTAL PROTEIN ([…], time 28 day): 6.76 G/DL
- URIC ACID ([…], time 28 day): 0.26 mg/dL
